{"source": "paper PMC6437697", "about": "(Journal of Medicinal Chemistry, 2019)", "key": {"[1]": {"test_system": "FLT3(ITD,D835Y)", "assay": "KINOMEscan", "assay_type": "binding, human", "conditions": "1000 nM"}, "[2]": {"test_system": "GFP-IRE1α oligomerization in HEK293 cells", "assay": "GFP-IRE1α foci (oligomerization) assay in HEK293 cells", "assay_type": "cell-based, human", "conditions": "absence of tunicamycin"}, "[3]": {"target": "T1, CAMK1B (Homo sapiens, UniProt Q6P2M8)", "T1 construct": "purchased Eurofins DiscoverX KINOMEscan", "assay": "KINOMEscan", "assay_type": "binding", "conditions": "read-out: % control activity remaining"}, "[4]": {"assay": "Measured lipophilicity Log D7.4", "conditions": "pH 7.4"}, "[5]": {"test_system": "FLT3(ITD,D835V)", "assay": "KINOMEscan", "assay_type": "binding, human", "conditions": "1000 nM"}, "[6]": {"target": "T2, GRK2 (Homo sapiens, UniProt P25098)", "T2 construct": "purchased Eurofins DiscoverX KINOMEscan", "assay": "KINOMEscan", "assay_type": "binding", "conditions": "read-out: % control activity remaining"}, "[7]": {"target": "T3, FLT3(D835V) (Homo sapiens, UniProt P36888, D835V)", "T3 construct": "purchased Eurofins DiscoverX KINOMEscan", "assay": "KINOMEscan", "assay_type": "binding", "conditions": "read-out: % control activity remaining"}, "[8]": {"target": "T4, FLT3(D835H) (Homo sapiens, UniProt P36888, D835H)", "T4 construct": "purchased Eurofins DiscoverX KINOMEscan", "T4 sequence (P36888 27-993 D835H)": "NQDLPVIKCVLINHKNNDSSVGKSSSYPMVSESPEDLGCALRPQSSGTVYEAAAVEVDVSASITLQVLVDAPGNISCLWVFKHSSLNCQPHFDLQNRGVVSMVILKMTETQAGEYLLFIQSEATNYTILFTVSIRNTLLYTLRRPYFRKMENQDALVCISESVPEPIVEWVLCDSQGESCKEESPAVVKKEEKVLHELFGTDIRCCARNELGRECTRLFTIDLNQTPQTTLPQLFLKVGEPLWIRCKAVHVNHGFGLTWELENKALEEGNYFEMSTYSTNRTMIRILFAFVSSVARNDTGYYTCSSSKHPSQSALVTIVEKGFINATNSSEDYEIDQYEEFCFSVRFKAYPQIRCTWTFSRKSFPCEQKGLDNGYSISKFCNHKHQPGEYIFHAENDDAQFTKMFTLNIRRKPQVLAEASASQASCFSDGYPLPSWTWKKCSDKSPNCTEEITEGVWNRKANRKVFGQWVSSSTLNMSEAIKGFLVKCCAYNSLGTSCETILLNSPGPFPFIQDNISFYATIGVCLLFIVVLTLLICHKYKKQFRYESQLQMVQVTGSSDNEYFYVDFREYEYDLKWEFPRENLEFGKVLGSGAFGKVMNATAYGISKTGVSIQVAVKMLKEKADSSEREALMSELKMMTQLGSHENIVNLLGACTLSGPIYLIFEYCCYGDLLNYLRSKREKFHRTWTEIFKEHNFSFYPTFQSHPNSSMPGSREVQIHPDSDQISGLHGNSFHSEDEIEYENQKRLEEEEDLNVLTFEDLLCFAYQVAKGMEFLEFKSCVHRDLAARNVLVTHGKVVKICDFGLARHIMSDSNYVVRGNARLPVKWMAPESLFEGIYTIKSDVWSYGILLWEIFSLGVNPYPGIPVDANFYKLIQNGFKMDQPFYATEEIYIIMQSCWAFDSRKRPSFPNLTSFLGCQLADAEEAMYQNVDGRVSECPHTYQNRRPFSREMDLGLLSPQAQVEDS", "assay": "KINOMEscan", "assay_type": "binding", "conditions": "read-out: % control activity remaining"}, "[9]": {"target": "T5, CDK4 (Homo sapiens, UniProt P11802)", "T5 construct": "purchased Eurofins DiscoverX KINOMEscan", "T5 sequence (P11802 whole entry)": "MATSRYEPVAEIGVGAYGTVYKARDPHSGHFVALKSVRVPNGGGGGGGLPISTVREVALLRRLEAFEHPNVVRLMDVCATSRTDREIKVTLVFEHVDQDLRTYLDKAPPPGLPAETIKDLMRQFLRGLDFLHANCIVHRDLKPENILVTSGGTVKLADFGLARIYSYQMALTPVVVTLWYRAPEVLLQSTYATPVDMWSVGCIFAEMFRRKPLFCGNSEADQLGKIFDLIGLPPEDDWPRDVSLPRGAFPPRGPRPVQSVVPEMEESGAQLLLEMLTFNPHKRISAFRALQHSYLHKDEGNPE", "assay": "KINOMEscan", "assay_type": "binding", "conditions": "read-out: % control activity remaining"}, "[10]": {"target": "IRE1β (Homo sapiens, UniProt Q76MJ5)", "sequence (Q76MJ5 35-926)": "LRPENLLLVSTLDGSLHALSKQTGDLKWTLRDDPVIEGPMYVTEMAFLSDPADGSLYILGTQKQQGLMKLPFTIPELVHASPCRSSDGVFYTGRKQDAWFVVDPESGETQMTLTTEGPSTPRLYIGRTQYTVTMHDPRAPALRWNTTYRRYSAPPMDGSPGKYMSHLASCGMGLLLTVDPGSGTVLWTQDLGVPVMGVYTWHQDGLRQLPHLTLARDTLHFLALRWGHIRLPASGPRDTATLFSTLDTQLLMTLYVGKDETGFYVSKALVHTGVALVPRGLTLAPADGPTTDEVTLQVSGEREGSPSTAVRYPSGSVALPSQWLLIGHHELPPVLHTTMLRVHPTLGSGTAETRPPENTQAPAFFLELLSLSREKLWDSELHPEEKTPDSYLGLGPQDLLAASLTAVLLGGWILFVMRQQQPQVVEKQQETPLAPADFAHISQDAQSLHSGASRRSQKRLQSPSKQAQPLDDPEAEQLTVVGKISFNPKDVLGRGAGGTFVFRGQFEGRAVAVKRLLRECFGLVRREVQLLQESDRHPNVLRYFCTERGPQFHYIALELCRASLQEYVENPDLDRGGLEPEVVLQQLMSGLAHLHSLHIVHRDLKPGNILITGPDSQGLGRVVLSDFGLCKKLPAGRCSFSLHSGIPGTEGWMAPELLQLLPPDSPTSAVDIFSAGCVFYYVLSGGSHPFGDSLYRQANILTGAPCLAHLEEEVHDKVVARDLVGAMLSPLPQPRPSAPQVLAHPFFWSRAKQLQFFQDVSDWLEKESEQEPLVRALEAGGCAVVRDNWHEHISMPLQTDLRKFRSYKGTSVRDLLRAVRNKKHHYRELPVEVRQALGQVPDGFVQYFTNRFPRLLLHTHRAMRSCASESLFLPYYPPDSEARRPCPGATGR", "assay": "biochemical", "assay_type": "binding"}, "[11]": {"assay": "Aqueous buffer solubility (KSol)"}, "[12]": {"target": "T6, VPS34 (Homo sapiens, UniProt Q8NEB9)", "T6 construct": "purchased Eurofins DiscoverX KINOMEscan", "T6 sequence (Q8NEB9 whole entry)": "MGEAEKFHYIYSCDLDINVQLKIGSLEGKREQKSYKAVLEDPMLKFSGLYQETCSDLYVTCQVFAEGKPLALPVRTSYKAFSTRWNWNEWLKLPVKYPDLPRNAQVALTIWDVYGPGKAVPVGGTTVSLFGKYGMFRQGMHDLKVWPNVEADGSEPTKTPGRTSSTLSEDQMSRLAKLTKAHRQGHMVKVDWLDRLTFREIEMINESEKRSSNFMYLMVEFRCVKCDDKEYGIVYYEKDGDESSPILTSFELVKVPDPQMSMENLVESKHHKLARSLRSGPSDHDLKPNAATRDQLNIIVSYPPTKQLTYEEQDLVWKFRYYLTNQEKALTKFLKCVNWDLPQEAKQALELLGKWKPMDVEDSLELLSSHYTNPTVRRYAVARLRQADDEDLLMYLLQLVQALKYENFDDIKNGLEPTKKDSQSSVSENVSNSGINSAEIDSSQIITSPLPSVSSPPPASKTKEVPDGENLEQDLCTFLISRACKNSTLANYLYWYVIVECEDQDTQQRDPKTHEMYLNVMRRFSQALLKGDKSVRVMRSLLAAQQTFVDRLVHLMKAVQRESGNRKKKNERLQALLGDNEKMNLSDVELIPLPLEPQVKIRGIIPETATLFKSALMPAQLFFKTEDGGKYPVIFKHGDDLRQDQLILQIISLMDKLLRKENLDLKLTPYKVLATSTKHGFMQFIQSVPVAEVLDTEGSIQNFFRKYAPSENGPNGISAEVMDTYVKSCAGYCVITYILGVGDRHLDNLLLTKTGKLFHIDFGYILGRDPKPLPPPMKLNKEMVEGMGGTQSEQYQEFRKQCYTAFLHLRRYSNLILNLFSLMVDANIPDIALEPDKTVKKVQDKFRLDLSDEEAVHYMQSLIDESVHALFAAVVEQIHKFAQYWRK", "assay": "KINOMEscan", "assay_type": "binding", "conditions": "read-out: % control activity remaining"}, "[13]": {"target": "T7, TSSK3 (Homo sapiens, UniProt Q96PN8)", "T7 construct": "purchased Eurofins DiscoverX KINOMEscan", "T7 sequence (Q96PN8 whole entry)": "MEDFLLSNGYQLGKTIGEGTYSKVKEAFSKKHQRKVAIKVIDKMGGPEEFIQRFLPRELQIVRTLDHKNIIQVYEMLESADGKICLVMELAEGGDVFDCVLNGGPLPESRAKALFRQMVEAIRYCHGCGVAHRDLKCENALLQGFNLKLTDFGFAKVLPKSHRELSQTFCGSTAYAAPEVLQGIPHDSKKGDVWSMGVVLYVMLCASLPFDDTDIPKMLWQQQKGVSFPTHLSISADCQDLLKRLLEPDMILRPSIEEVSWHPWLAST", "assay": "KINOMEscan", "assay_type": "binding", "conditions": "read-out: % control activity remaining"}, "[14]": {"target": "T8, PKFYVE (Homo sapiens, UniProt Q9Y2I7)", "T8 construct": "purchased Eurofins DiscoverX KINOMEscan", "assay": "KINOMEscan", "assay_type": "binding", "conditions": "read-out: % control activity remaining"}, "[15]": {"target": "T9, PHKG2 (Homo sapiens, UniProt P15735)", "T9 construct": "purchased Eurofins DiscoverX KINOMEscan", "T9 sequence (P15735 1-406)": "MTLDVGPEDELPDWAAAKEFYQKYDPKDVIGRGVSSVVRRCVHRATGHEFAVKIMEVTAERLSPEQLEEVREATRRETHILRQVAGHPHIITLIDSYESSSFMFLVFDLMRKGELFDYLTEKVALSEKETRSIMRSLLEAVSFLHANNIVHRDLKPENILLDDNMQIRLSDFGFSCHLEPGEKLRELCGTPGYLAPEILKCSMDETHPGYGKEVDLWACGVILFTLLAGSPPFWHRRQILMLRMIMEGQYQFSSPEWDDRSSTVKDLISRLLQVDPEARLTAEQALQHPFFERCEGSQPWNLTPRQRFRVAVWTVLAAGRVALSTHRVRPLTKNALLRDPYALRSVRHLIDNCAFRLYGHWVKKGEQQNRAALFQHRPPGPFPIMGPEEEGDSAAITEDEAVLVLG", "assay": "KINOMEscan", "assay_type": "binding", "conditions": "read-out: % control activity remaining"}, "[16]": {"target": "T10, DMPK2 (Homo sapiens, UniProt Q6DT37)", "T10 construct": "purchased Eurofins DiscoverX KINOMEscan", "T10 sequence (Q6DT37 whole entry)": "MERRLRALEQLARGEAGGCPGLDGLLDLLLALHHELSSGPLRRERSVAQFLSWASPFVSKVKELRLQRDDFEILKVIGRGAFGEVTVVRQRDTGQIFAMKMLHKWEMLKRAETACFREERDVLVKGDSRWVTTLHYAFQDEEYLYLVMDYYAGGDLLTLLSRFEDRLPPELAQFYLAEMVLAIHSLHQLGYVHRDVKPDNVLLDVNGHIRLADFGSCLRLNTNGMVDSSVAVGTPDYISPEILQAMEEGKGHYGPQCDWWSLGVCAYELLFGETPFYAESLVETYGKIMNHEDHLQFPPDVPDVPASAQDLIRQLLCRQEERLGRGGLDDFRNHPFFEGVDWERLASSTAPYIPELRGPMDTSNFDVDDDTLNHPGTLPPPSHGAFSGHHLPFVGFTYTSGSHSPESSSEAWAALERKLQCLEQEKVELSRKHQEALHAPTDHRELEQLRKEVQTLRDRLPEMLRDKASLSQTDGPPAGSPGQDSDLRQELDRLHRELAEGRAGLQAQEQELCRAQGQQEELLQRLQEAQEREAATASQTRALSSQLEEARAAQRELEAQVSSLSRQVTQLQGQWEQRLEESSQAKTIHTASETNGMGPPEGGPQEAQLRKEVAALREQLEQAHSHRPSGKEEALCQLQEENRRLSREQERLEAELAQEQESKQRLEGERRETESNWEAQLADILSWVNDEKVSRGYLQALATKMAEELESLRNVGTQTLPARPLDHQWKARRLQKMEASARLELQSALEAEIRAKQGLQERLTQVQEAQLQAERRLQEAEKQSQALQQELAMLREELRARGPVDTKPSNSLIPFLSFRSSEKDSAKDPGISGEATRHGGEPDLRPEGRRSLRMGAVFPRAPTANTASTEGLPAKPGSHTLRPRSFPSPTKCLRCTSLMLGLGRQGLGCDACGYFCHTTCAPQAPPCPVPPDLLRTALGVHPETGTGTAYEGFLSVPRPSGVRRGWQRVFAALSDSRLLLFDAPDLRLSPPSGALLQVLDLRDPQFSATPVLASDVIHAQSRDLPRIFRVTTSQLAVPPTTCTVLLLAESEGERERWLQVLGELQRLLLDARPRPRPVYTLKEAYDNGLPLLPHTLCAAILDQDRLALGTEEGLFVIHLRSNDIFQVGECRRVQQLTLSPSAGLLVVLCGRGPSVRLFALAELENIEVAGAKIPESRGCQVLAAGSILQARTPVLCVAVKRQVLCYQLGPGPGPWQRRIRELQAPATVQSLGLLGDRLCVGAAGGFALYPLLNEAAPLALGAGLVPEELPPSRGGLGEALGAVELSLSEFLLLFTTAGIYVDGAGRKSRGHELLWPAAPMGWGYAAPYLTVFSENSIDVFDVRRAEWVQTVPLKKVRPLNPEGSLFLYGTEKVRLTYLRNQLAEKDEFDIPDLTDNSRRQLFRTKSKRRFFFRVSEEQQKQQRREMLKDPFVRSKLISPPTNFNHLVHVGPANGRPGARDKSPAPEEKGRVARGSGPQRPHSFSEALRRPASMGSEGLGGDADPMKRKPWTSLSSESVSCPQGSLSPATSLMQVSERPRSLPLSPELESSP", "assay": "KINOMEscan", "assay_type": "binding", "conditions": "read-out: % control activity remaining"}, "[17]": {"target": "T11, WNK4 (Homo sapiens, UniProt Q96J92)", "T11 construct": "purchased Eurofins DiscoverX KINOMEscan", "assay": "KINOMEscan", "assay_type": "binding", "conditions": "read-out: % control activity remaining"}, "[18]": {"target": "T12, GRK3 (Homo sapiens, UniProt P35626)", "T12 construct": "purchased Eurofins DiscoverX KINOMEscan", "T12 sequence (P35626 whole entry)": "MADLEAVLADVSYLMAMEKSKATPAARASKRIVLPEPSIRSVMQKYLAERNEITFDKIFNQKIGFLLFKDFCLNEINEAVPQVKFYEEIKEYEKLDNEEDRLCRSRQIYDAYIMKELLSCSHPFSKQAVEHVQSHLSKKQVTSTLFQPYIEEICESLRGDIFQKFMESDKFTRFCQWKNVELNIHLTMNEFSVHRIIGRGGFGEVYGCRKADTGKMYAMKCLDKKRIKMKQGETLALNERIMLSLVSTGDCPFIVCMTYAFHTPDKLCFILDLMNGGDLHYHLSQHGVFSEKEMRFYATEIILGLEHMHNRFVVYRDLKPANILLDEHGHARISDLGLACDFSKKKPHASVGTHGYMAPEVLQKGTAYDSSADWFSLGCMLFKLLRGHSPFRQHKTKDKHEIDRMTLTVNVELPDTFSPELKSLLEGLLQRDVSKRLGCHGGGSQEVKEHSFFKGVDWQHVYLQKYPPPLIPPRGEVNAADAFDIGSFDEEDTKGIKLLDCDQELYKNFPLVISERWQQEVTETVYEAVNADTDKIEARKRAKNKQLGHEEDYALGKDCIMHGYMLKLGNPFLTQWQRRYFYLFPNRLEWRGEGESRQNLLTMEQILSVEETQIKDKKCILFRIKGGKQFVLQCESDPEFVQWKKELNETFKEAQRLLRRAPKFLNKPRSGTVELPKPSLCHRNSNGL", "assay": "KINOMEscan", "assay_type": "binding", "conditions": "read-out: % control activity remaining"}, "[19]": {"target": "T13, WNK2 (Homo sapiens, UniProt Q9Y3S1)", "T13 construct": "purchased Eurofins DiscoverX KINOMEscan", "assay": "KINOMEscan", "assay_type": "binding", "conditions": "read-out: % control activity remaining"}, "[20]": {"test_system": "IRE1α-dependent splicing of XBP1u-luciferase mRNA reporter in HEK293 cells", "assay": "XBP1 luciferase fusion mRNA splicing reporter in HEK293 cells", "assay_type": "cell-based, human", "conditions": "Homo sapiens, HEK293, read-out: tunicamycin- and thapsigargin-induced splicing of XBP1 luciferase fusion mRNA IC50"}, "[21]": {"target": "T14, VRK2 (Homo sapiens, UniProt Q86Y07)", "T14 construct": "purchased Eurofins DiscoverX KINOMEscan", "assay": "KINOMEscan", "assay_type": "binding", "conditions": "read-out: % control activity remaining"}, "[22]": {"target": "T15, MEK6 (Homo sapiens, UniProt P52564)", "T15 construct": "purchased Eurofins DiscoverX KINOMEscan", "T15 sequence (P52564 whole entry)": "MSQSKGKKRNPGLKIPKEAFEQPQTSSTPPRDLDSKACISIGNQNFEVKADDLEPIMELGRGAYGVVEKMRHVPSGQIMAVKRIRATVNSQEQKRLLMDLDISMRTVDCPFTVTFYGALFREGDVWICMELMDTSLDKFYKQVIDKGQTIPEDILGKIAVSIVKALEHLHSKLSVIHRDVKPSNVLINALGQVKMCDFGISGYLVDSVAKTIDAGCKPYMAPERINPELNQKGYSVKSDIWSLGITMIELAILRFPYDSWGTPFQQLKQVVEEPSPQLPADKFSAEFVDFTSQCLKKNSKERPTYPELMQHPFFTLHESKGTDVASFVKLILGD", "assay": "KINOMEscan", "assay_type": "binding", "conditions": "read-out: % control activity remaining"}, "[23]": {"target": "IRE1α (Homo sapiens, UniProt O75460)", "assay": "biochemical", "assay_type": "binding"}, "[24]": {"assay": "in vitro", "conditions": "human"}}, "data": [{"smiles": "CN1CCC(CNc2cc(Cl)nn3c(-c4cc5nc(Nc6ccccc6)[nH]c5cc4F)cnc23)CC1", "note": "[compound 31, 6-Chloro-3-(6-fluoro-2-(phenylamino)-1H-benzo[d]imidazol-5-yl)-N-((1-methylpiperidin-4-yl)methyl)imidazo[1,2-b]pyridazin-8-amine]", "values": [{"measurement": "% control activity remaining", "setting": "[1]", "value": 77, "unit": "%"}, {"measurement": "stimulation of GFP-IRE1α foci formation by compound on its own", "setting": "[2]", "value": "No stimulation"}, {"measurement": "remaining binding at 1 µM", "setting": "[3]", "value": 100, "unit": "%"}, {"measurement": "logD", "setting": "[4]", "value": 3.7}, {"measurement": "% control activity remaining", "setting": "[5]", "value": 76, "unit": "%"}, {"measurement": "remaining binding at 1 µM", "setting": "[6]", "value": 100, "unit": "%"}, {"measurement": "remaining binding at 1 µM", "setting": "[7]", "value": 69, "unit": "%"}, {"measurement": "remaining binding at 1 µM", "setting": "[8]", "value": 90, "unit": "%"}, {"measurement": "remaining binding at 1 µM", "setting": "[9]", "value": 100, "unit": "%"}, {"measurement": "IC50", "setting": "[10]", "value": 7680, "unit": "nM"}, {"measurement": "selectivity for IRE1α over the IRE1β isoform", "setting": "[10]", "value": 100, "unit": "fold"}, {"measurement": "solubility", "setting": "[11]", "value": 38, "unit": "µM"}, {"measurement": "remaining binding at 1 µM", "setting": "[12]", "value": 97, "unit": "%"}, {"measurement": "remaining binding at 1 µM", "setting": "[13]", "value": 91, "unit": "%"}, {"measurement": "remaining binding at 1 µM", "setting": "[14]", "value": 26, "unit": "%"}, {"measurement": "remaining binding at 1 µM", "setting": "[15]", "value": 98, "unit": "%"}, {"measurement": "remaining binding at 1 µM", "setting": "[16]", "value": 100, "unit": "%"}, {"measurement": "remaining binding at 1 µM", "setting": "[17]", "value": 83, "unit": "%"}, {"measurement": "remaining binding at 1 µM", "setting": "[18]", "value": 91, "unit": "%"}, {"measurement": "remaining binding at 1 µM", "setting": "[19]", "value": 100, "unit": "%"}, {"measurement": "IC50", "setting": "[20]", "value": "680 to 1630", "unit": "nM"}, {"measurement": "remaining binding at 1 µM", "setting": "[21]", "value": 82, "unit": "%"}]}, {"smiles": "O=C(CN1CCOCC1)N[C@H]1CC[C@H](Nc2cc(Cl)nn3c(-c4ccc5[nH]ncc5c4)cnc23)CC1", "note": "[compound 26]", "values": [{"measurement": "% control activity remaining", "setting": "[1]", "value": 25, "unit": "%"}, {"measurement": "stimulation of GFP-IRE1α foci formation by compound on its own", "setting": "[2]", "value": "No stimulation"}, {"measurement": "remaining binding at 1 µM", "setting": "[3]", "value": 75, "unit": "%"}, {"measurement": "logD", "setting": "[4]", "value": 1.8}, {"measurement": "% control activity remaining", "setting": "[5]", "value": 0.7, "unit": "%"}, {"measurement": "remaining binding at 1 µM", "setting": "[6]", "value": 84, "unit": "%"}, {"measurement": "remaining binding at 1 µM", "setting": "[22]", "value": 93, "unit": "%"}, {"measurement": "remaining binding at 1 µM", "setting": "[7]", "value": 0, "unit": "%"}, {"measurement": "remaining binding at 1 µM", "setting": "[8]", "value": 5.5, "unit": "%"}, {"measurement": "IC50", "setting": "[23]", "value": 39, "unit": "nM"}, {"measurement": "remaining binding at 1 µM", "setting": "[9]", "value": 100, "unit": "%"}, {"measurement": "IC50", "setting": "[10]", "value": 345, "unit": "nM"}, {"measurement": "selectivity for IRE1α over the IRE1β isoform", "setting": "[10]", "value": 9, "unit": "fold"}, {"measurement": "solubility", "setting": "[11]", "value": 80, "unit": "µM"}, {"measurement": "remaining binding at 1 µM", "setting": "[12]", "value": 94, "unit": "%"}, {"measurement": "remaining binding at 1 µM", "setting": "[13]", "value": 100, "unit": "%"}, {"measurement": "remaining binding at 1 µM", "setting": "[14]", "value": 87, "unit": "%"}, {"measurement": "remaining binding at 1 µM", "setting": "[15]", "value": 29, "unit": "%"}, {"measurement": "EC50", "setting": "[24]", "value": "> 49000", "unit": "nM"}, {"measurement": "remaining binding at 1 µM", "setting": "[16]", "value": 81, "unit": "%"}, {"measurement": "remaining binding at 1 µM", "setting": "[17]", "value": 100, "unit": "%"}, {"measurement": "remaining binding at 1 µM", "setting": "[18]", "value": 74, "unit": "%"}, {"measurement": "remaining binding at 1 µM", "setting": "[19]", "value": 34, "unit": "%"}, {"measurement": "IC50", "setting": "[20]", "value": "680 to 1630", "unit": "nM"}, {"measurement": "remaining binding at 1 µM", "setting": "[21]", "value": 98, "unit": "%"}]}, {"smiles": "Clc1cc(NCC2CC2)c2ncc(-c3ccc4[nH]ncc4c3)n2n1", "note": "[compound 2, 6-Chloro-N-(cyclopropylmethyl)-3-(1H-indazol-5-yl)imidazo[1,2-b]pyridazin-8-amine]", "values": [{"measurement": "remaining binding at 1 µM", "setting": "[22]", "value": 98, "unit": "%"}, {"measurement": "remaining binding at 1 µM", "setting": "[8]", "value": 13, "unit": "%"}, {"measurement": "remaining binding at 1 µM", "setting": "[15]", "value": 85, "unit": "%"}, {"measurement": "EC50", "setting": "[24]", "value": "> 49000", "unit": "nM"}, {"measurement": "remaining binding at 1 µM", "setting": "[16]", "value": 62, "unit": "%"}]}]}
